# According to the RepoRT retention time repository (doi:10.1021/acs.analchem.2c02893):
# Assay: RP, Thermo Scientific Acclaim RSLC 120 C18, 100 × 2.1 mm, 2.2 µm, 30 °C, 0.2 mL/min, estimated dead time 1.1 min; A: 90% water + 10% methanol + 0.01% formic acid + 5 mM ammonium formate, pH 3.61; B: methanol + 0.01% formic acid + 5 mM ammonium formate, pH 3.61; gradient (min/%B) 0/1 1/1 2/39 13/99.9 15/99.9 15.1/1 20.1/1
# Conditions: stereoisomer not certain
row,LC retention time,Compound
1,3.03 min,ON=Cc1cc[n+](COC[n+]2ccc(C=NO)cc2)cc1 [Obidoxime]
2,6.03 min,CCN(Cc1ccncc1)C(=O)C(CO)c1ccccc1 (configuration not stated) [Tropicamide]
3,4.17 min,CC(C)[N+]1(C)C2CCC1CC(OC(=O)C(CO)c1ccccc1)C2 (configuration not stated) [Ipratropium]
4,10.3 min,COc1ccc2c(c1)c(CC(=O)O)c(C)n2C(=O)c1ccc(Cl)cc1 [Indomethacin]
5,4.33 min,CC[N+]1([O-])CCCC1CNC(=O)c1cc(S(=O)(=O)CC)c(N)cc1OC (configuration not stated) [Amisulpride-N-Oxide]
6,6.6 min,CN(C)CCCC1(c2ccc(F)cc2)OC(=O)c2cc(C#N)ccc21 (configuration not stated) [Citalopram 3-oxo]
7,9.24 min,CC=CC(=O)N(CC)c1ccccc1C [Crotamiton]
8,5.06 min,CCN1CCCC1CNC(=O)c1c(OC)ccc(Br)c1OC (configuration not stated) [Remoxipride]
9,9.16 min,CCC1OC(=O)C(C)C(OC2CC(C)(OC)C(O)C(C)O2)C(C)C(OC2OC(C)CC(NC)C2O)C(C)(OC)CC(C)C(=O)C(C)C(O)C1(C)O (configuration not stated) [Clarithromycin-N-desmethyl]
10,1.36 min,NC(=O)c1ncn(C2OC(CO)C(O)C2O)n1 (configuration not stated) [Ribavirin]
11,6 min,COC(=O)c1ccc(O)cc1 [Methylparaben]
12,10.9 min,CC(C)n1c(C=CC(O)CC(O)CC(=O)O)c(-c2ccc(F)cc2)c2ccccc21 (configuration not stated) [Fluvastatin]
13,4.48 min,O=S(=O)(O)c1nc2ccccc2s1 [2-Benzothiazolesulfonic acid]
14,8.43 min,COc1ccc(Oc2ccc(NC(=O)N(C)C)cc2)cc1 [Difenoxuron]
15,7.19 min,CN1CCN(C2=Nc3cc(Cl)ccc3Nc3ccccc32)CC1 [Clozapine]
16,8.29 min,CCc1cc2cc(OC)c(OC)cc2c(Cc2ccccc2)n1 [Moxaverine]
17,10.8 min,CC1(C)OC2CC3C4CCC5=CC(=O)CCC5(C)C4(F)C(O)CC3(C)C2(C(=O)CCl)O1 (configuration not stated) [Halcinonide]
18,8.11 min,CCCc1nc(C)c2c(=O)[nH]c(-c3cc(S(=O)(=O)N4CCN(CC)CC4)ccc3OCC)nn12 [Vardenafil]
19,3.73 min,CC1=C(C)S(=O)(=O)CCS1(=O)=O [Dimethipin]
20,10.3 min,CCCC1OC2CC3C4CCC5=CC(=O)C=CC5(C)C4C(O)CC3(C)C2(C(=O)CO)O1 (configuration not stated) [Budesonide]
21,3.24 min,NS(=O)(=O)c1cc2c(cc1Cl)NCNS2(=O)=O [Hydrochlorothiazide (NH4)]

row,LC retention time,Compound
1,7.03 min,O=C(NCC1CN(c2ccc(N3CCOCC3=O)cc2)C(=O)O1)c1ccc(Cl)s1 (configuration not stated) [Rivaroxaban]
2,5.6 min,COc1cc(NS(=O)(=O)c2ccc(N)cc2)nc(OC)n1 [Sulfadimethoxine]
3,2.88 min,Nc1cc(-c2ccncc2)c[nH]c1=O [Amrinone]
4,5.12 min,CN(C)C(=O)Nc1ccccc1 [Fenuron]
5,6.23 min,CCN1CC(CCN2CCOCC2)C(c2ccccc2)(c2ccccc2)C1=O (configuration not stated) [Doxapram]
6,10.6 min,COC(=O)C1=C(C)NC(C)=C(C(=O)OCC(C)C)C1c1ccccc1[N+](=O)[O-] (configuration not stated) [Nisoldipine]
7,9.46 min,C#CC1(O)CCC2C3CCc4cc(O)ccc4C3CCC21C (configuration not stated) [EE2 - Ethinyl estradiol]
8,6.32 min,CN(C)CCN(Cc1cccs1)c1ccccc1 [Methaphenilene]
9,4.57 min,NC(N)=NCC1COc2ccccc2O1 (configuration not stated) [Guanoxan]
10,14.4 min,CCC(C)C1OC2(CCC1C)CC1CC(CC=C(C)C(OC3CC(OC)C(OC4CC(OC)C(O)C(C)O4)C(C)O3)C(C)C=CC=C3COC4C(O)C(C)=CC(C(=O)O1)C34O)O2 (configuration not stated) [Ivermectin B1a]
11,7.39 min,CN1CC2c3ccccc3Oc3ccc(Cl)cc3C2C1 (configuration not stated) [Asenapine]
12,9.09 min,C=CCOC(Cn1ccnc1)c1ccc(Cl)cc1Cl (configuration not stated) [Imazalil]
13,8.23 min,CN(C)CCC=C1c2ccccc2CCc2ccccc21 [Amitriptyline]
14,3.68 min,NC(N)=NC(=O)c1nc(Cl)c(N)nc1N [Amiloride]
15,4.24 min,CC(=O)Nc1ccc(S(=O)(=O)Nc2nccs2)cc1 [Sulfathiazole-N4-Acetyl]
16,6.16 min,O=C(CCCN1CC=C(n2c(=O)[nH]c3ccccc32)CC1)c1ccc(F)cc1 [Droperidol]
17,8.49 min,CCC(=O)c1ccc2c(c1)N(CCCN(C)C)c1ccccc1S2 [Promazine-Propionyl]
18,4.56 min,Cc1c(NC(=O)c2cccnc2)c(=O)n(-c2ccccc2)n1C [Nifenazone]
19,8.38 min,CC1CC2C3CCC4=CC(=O)C=CC4(C)C3(F)C(O)CC2(C)C1(O)C(=O)CO (configuration not stated) [Dexamethasone]
20,3.56 min,Cn1c(=O)c2c(ncn2CCCNCC(O)c2cc(O)cc(O)c2)n(C)c1=O (configuration not stated) [Reproterol]
21,9.86 min,C(=Cc1ccccc1)CN1CCN(C(c2ccccc2)c2ccccc2)CC1 [Cinnarizine]

row,Compound,LC retention time
1,OC(c1ccc(Cl)cc1)(c1ccc(Cl)cc1)C(Cl)(Cl)Cl [Dicofol],11.8 min
2,COC(=O)C(C)N(C(=O)Cc1ccccc1)c1c(C)cccc1C (configuration not stated) [Benalaxyl],10.9 min
3,CCC(=O)OC(Cc1ccccc1)(c1ccccc1)C(C)CNC (configuration not stated) [Nordextropropoxyphene],7.84 min
4,c1ccc2c(c1)Sc1ccccc1N2CC1CN2CCC1CC2 (configuration not stated) [Mequitazine],8.29 min
5,O=C1CN=C(C2=CCCCC2)c2cc(Cl)ccc2N1 [Tetrazepam-Nor],10.1 min
6,O=C(NC(=O)c1c(F)cccc1F)Nc1ccc(CON=C(c2ccc(Cl)cc2)C2CC2)cc1 [Flucycloxuron],12.8 min
7,CCc1nn(C)c(C(=O)NCc2ccc(C(C)(C)C)cc2)c1Cl [Tebufenpyrad],12.2 min
8,CC(N)Cc1ccc2occc2c1 (configuration not stated) [5-(2-aminopropyl)benzofuran (5-APB)],4.79 min
9,CC1=C(C(=O)Nc2ccccc2)SCCO1 [Carboxin],7.46 min
10,N#CC(CCc1ccc(Cl)cc1)(Cn1cncn1)c1ccccc1 (configuration not stated) [Fenbuconazole],10.4 min
11,CC(C)=CC1C(C(=O)OCc2coc(Cc3ccccc3)c2)C1(C)C (configuration not stated) [Bioresmethrin],13.6 min
12,O=c1oc2ccccc2c(O)c1C1CC(c2ccc(-c3ccc(Br)cc3)cc2)Cc2ccccc21 (configuration not stated) [Brodifacoum],13 min
13,O=C(Nc1cccc2ccccc12)c1nn(CCCCCF)c2ccccc12 [5-fluoro MN-18],11.8 min
14,C=CCC(C(=O)NC(N)=O)C(C)C (configuration not stated) [Apronalide],6.94 min
15,CC1(C)CCC(Cc2ccc(Cl)cc2)C1(O)Cn1cncn1 (configuration not stated) [Metconazole],11.2 min
16,O=C(O)c1c(Cl)ccc2cc(Cl)cnc12 [Quinclorac],4.9 min
17,Oc1ccc2c3c1OC1C(O)C=CC4C(C2)NCCC341 (configuration not stated) [Morphine-Nor],2.71 min
18,COP(=S)(OC)SCC(=O)N(c1ccc(Cl)cc1)C(C)C [Anilofos],10.8 min
19,Cc1ccc(C(=O)C(C)N2CCCC2)cc1 (configuration not stated) [MePPP (4-4-Methyl-pyrrolidinopropiophenone)],4.76 min
20,O=C(c1ccccc1I)c1cn(CCCCCF)c2ccccc12 [AM-694],10.5 min

row,Compound,LC retention time
1,CC(Oc1ccc(Oc2nc3ccc(Cl)cc3o2)cc1)C(=O)O (configuration not stated) [Fenoxaprop-P],9.83 min
2,COP(=S)(OC)Oc1ccc(SC)c(C)c1 [Fenthion],11 min
3,CC(C)(C)C(O)C(Oc1ccc(-c2ccccc2)cc1)n1cncn1 (configuration not stated) [Bitertanol],11.3 min
4,CC(N)Cc1ccc2[nH]ccc2c1 (configuration not stated) [5-(2-Aminopropyl)indole (5-API)],4.07 min
5,CCCCOCN(C(=O)CCl)c1c(CC)cccc1CC [Butachlor],12.3 min
6,Cc1ccc(N=CN(C)C=Nc2ccc(C)cc2C)c(C)c1 [Amitraz],13.3 min
7,CCNC(=O)NC(=O)C(C#N)=NOC [Cymoxanil],5.6 min
8,COC1(C)CC(c2ccccc2)c2c(c3ccccc3oc2=O)O1 (configuration not stated) [Pyranocoumarin],11.1 min
9,CCCCCn1cc(C(=O)Cc2ccccc2C)c2ccccc21 [JWH-251],12.2 min
10,CNC(=O)Oc1ccc2c(c1)C1(C)CCN(C)C1N2C (configuration not stated) [Physostigmine],3.89 min
11,COc1ccc(-c2ccccc2)cc1NNC(=O)OC(C)C [Bifenazate],9.87 min
12,CCC(CC)Nc1c([N+](=O)[O-])cc(C)c(C)c1[N+](=O)[O-] [Pendimethalin],12.8 min
13,CN(C)C(=S)SSC(=S)N(C)C [Thiram (Tetramethylthiuramdisulfide.TMTD)],6.8 min
14,C=CCN(CC=C)CCc1c[nH]c2ccc(OC)cc12 [MeO-DALT (5-)],4.89 min
15,N#Cc1nn(-c2c(Cl)cc(C(F)(F)F)cc2Cl)c(N)c1SC(F)(F)F [Fipronil-sulfide],10.8 min
16,CCCN1CC(CSC)CC2c3cccc4[nH]cc(c34)CC21 (configuration not stated) [Pergolide],6.19 min
17,CCCCCn1cc(C(=O)c2ccc(CC)c3ccccc23)c2ccccc21 [JWH-210],13.2 min
18,CCOP(=S)(OCC)N1C(=O)c2ccccc2C1=O [Ditalimfos],10.2 min
19,CCCCCn1nc(C(=O)NC(C)(C)c2ccccc2)c2ccccc21 [Cumyl-PINACA],12.5 min
20,"CCCCCCCCCCCCN(C)C [N,N-Dimethyldodecylamine]",10.4 min
